Laboratory results taken from PMC3989841 (Journal of nuclear medicine : official publication, Society …, 2013).
Several values for one entry are separate records, joined by “and”; a condition that tells them apart may be missing. Identical values can stand only once.

Assays:
[1] = renal extraction; cited from earlier work
[2] = mean ± SD, subjects with chronic kidney disease
[3] = Red cell; conditions: mean ± SD of 8 subjects with chronic kidney disease
[4] = mean of subjects with reduced renal function
[5] = normal renal function; cited from earlier work
[6] = Percentage injected dose in urine, voided at 30 and 180 min; conditions: for Percentage of injected dose in urine: individual patients 1–8; for Percentage of injected dose in urine, mean ± SD: mean ± SD of 8 subjects
[7] = Plasma protein binding; conditions: mean ± SD of 8 subjects with chronic kidney disease

Relative uptake in the left kidney [2] | RBC (%) (red cell uptake), mean ± SD [3] | RBC (%) (red cell uptake), mean ± SD ([3]; listed as OIH) | Mean plasma clearance (not normalised to body surface) [4] | Percentage of injected dose in urine, mean ± SD ([6]; 30 min after injection) | Percentage of injected dose in urine, mean ± SD ([6]; 180 min (3 h) after injection) | Percentage of injected dose in urine, mean ± SD ([6]; 180 min (3 h) after injection, listed as OIH) | PPB (%), mean ± SD [7] | Structure (SMILES) | Extraction fraction [1] | Normal plasma clearance [5] | Percentage of injected dose in urine ([6]; 30 min after injection) | Percentage of injected dose in urine ([6]; 180 min after injection)
– | – | – | – | – | – | – | – | O=C([O-])CN(CCN(CC(=O)[O-])CC(=O)[O-])CCN(CC(=O)[O-])CC(=O)[O-].[99Tc+4] [^99mTc-DTPA, ^99mTc-diethyltriaminepentaacetic acid] | approximately 20% | – | – | –
55.5% ± 8.1% | 16% ± 2% | 16 ± 2% | 198 mL/min | 40 ± 8% | 78% ± 11% | 78 ± 11% | 71 ± 5% | O=C(O)CNC(=O)c1ccccc1[131I] [^131I-OIH, ^131I-o-iodohippuran] | – | 472 to 530 mL/min | 46% and 47% and 24% and 38% and 50% and 42% and 41% and 33% | 81% and 59% and 76% and 98% and 75% and 77% and 79%
